Source: patent US12606540B2, “Triazolone compound” (MEDSHINE DISCOVERY INC., priority 2020, dated 2026)
Where two headings read alike, the source gives them in different places. Values belong to the compound of their own block, whether it stands above or below them.

What was measured:
[1] = system: influenza virus A/Weiss/43 (H1N1); assay: Influenza virus cytopathic effect (CPE) experiment in MDCK cells; format: cell-based; settings: unidentified influenza virus, H1N1, 120 h, 5 days incubation, CCK8
DHODH enzyme = DHODH enzyme (Homo sapiens, UniProt Q02127); assay: DHODH enzyme inhibitory activity in vitro (resazurin fluorescence); format: biochemical; settings: 5 nM DHODH, 15 μM L-DHO, 80 μM Resazurin
Sequence of DHODH enzyme (Q02127 whole entry): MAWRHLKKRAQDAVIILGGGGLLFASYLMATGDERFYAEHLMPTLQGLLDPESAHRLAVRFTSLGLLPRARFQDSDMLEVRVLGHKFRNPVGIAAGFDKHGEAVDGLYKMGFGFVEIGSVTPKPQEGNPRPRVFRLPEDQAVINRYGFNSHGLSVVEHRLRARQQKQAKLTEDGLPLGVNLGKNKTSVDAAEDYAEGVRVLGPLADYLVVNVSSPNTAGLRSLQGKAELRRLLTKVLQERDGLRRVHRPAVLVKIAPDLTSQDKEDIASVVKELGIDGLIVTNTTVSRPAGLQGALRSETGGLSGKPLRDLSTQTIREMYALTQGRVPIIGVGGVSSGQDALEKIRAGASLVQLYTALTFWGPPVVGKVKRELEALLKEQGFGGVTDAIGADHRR
From the text: The DHODH inhibitory activity of the compounds was detected by the following experimental method, and the experimental results are as shown in Table 1.
DHODH uses flavin mononucleotide FMN to catalyze the oxidation of dihydrooratic acid DHO to produce oratic acid, while the re-oxidation of FMN requires the participation of coenzyme CoQ. In the experiment of detecting the DHODH enzyme activity, CoQ was replaced by Resazurin dye as the final electron acceptor in the enzyme activity reaction. Resazurin solution is blue, and the resorufin generated after reduction has red fluorescence, and the fluorescence signal can be detected under the 535 nm of excitation wavelength and the 590 nm of emission wavelength. The components of the reaction buffer used in the experiment were 100 mM Hepes pH 7.0, 150 mM NaCl, 0.3% CHAPS, 0.5 mg/mL BSA, 0.1 μM FMN and 1% DMSO. The final concentration of DHODH enzyme in the reaction system was 5 nM, and the final concentration of substrate L-DHO was 15 μM, the final concentration of indicator Resazurin was 80 μM. The components of the reaction stop buffer were 100 mM Hepes pH 7.0 and 5 mM Orotate. The specific method was as follows: 2-fold final concentration of the DHODH enzyme solution was mixed with the compound, incubated at room temperature for 20 min, 2-fold final concentration of the substrate mixture solution of L-DHO and resazurin was added and reacted, incubated at room temperature away from light for 45 min. Then the reaction was stopped by adding 2-fold final concentration of the reaction stop buffer to the reaction system, and incubated at room temperature for 10 min, the fluorescence signal of the reaction system was detected with EnVision under the condition of Ex/Em=535/590 nm.

[2] = system: human peripheral blood mononuclear cells; assay: Proliferation inhibition of peripheral blood mononuclear cells (flow cytometry); format: cell-based; settings: PBMC, PHA-M 5 μg/mL stimulation, 48 hours
Experimental: Flow cytometry was used to detect cell proliferation of human peripheral blood mononuclear cells.
• Cell complete medium: 445 mL of RPMI1640 cell culture+50 mL of fetal bovine serum+5 mL of double antibody • Buffer 1: 9.9 mL of phosphate buffer+0.1 mL of 10% bovine serum protein • Buffer 2: 10 mL of fetal bovine serum+490 mL of phosphate buffer 3.2 Cell Thawing • 3.2.1 20 mL of cell complete medium was added to a 50 mL of centrifuge tube and pre-heated in a 37° C. water bath for 5 minutes; • 3.2.2 the cell cryotubes were removed from the liquid nitrogen storage tank and placed on dry ice for 5-10 minutes to allow the liquid nitrogen to evaporate fully; • 3.2.3 the cell cryotubes were clamped with forceps and placed in the water bath, and shaken gently to thaw the frozen cells quickly; • 3.2.4 the thawed cells were transferred to the pre-heated cell complete medium with a pipette, centrifuged at 350 g for 5 min, then the supernatant was discarded, and the cells was resuspended by adding 10 mL of phosphate buffer; • 3.2.5 counting by cell counter, and cell viability and cell count were recorded. 3.3 Cell Labeling • 3.3.1 Cell proliferation labeling solution (CellTrace™ Violet, 1:1000 dilution) was prepared • 3.3.2 the above mixture was centrifuged at 350 g for 5 minutes, and the supernatant was discarded, then the cells (20×10^6/mL) were resuspended by adding Buffer 1, and the resuspended cells were gently blown by pipette, and an equal volume of cell proliferation labeling solution (prepared in 3.3.1) was added, and gently blown well by pipette; • 3.3.3 incubating in a 5% CO2, 37° C. cell incubator for 18 minutes; • 3.3.4 the 5-fold volume of cell complete medium was added and leaved at room temperature for 5 minutes to terminate the staining reaction; • 3.3.5 the above mixture was centrifuged at 350 g for 5 minutes, and the supernatant was discarded, then the cells were resuspended by adding 10 mL of cell complete medium, counted by cell counter, and cell viability and cell count were recorded; • 3.3.6 the above mixture was centrifuged at 350 g for 5 minutes, and the supernatant was discarded, then the corresponding volume of cell complete medium was added according to the cell counting results, and the density of the resuspended cells was 2×10^6/mL and was to be used. 3.4 Cell Proliferation Stimulation • 3.4.1 50 μL/well prepared cell suspension (1×10^5 cells/well), 50 μL of 4×PHA-M (the final concentration is 5 μg/mL), 50 μL of 4×test compound, 50 μL of cell complete medium were added to the wells of 96-well cell culture plate, and the corresponding control group was set up; (total volume of the reaction system is 200 μL) • 3.4.2 the cell culture plate was placed and incubated in a 5% CO2, 37° C. cell incubator for 48 hours. 3.5 Cell Proliferation Detection • 3.5.1 the above mixture was centrifuged at 350 g for 5 minutes and the supernatant was transferred to a new cell culture plate and stored at −80° C.; • 3.5.2 200 μL of Buffer 2 was add to the wells of the culture plate, and the above mixture was centrifuged at 350 g and the supernatant was discarded; • 3.5.3 cell dead or living staining solution (7-AAD, 1:100 dilution) was prepared with Buffer 2; • 3.5.4 100 μL/well of dead or living staining solution was added, and gently blown and mixed well by pipette, and stained at room temperature for 10 min; • 3.5.5 cell proliferation was detected by flow cytometry analyzer and analyzed by Flowjo software.

MDR1 (P-glycoprotein) = assay: Permeability evaluation on MDR1-MDCK II cell line; settings: dog, MDCK-MDR1, pH 7.4
[3] = Pharmacokinetic evaluation in mice (IV and PO); format: in vivo, female Balb/c mice; settings: for AUC(0-inf) / AUC(0-t) / clearance / half-life / MRT last / Vd / Tmax / C0 / Cmax: female, Balb/c, mouse, plasma; for MRT last: read-out: MRT0-last; for Vd: read-out: VdSS
Experimental: Experiment process: 0.04 mg/mL of a clarified solution of the test compound in 5% DMSO/10% Solutol solution/85% water was injected into female Balb/c mice (overnight fasting, 7-9 weeks of age) via tail vein, with dosage of 0.2 mg/kg. 0.1 mg/mL of the test compound in 5% DMSO/10% Solutol solution/0.2% Tween80/84.8% water was administered by gavage to female Balb/c mice (overnight fasting, 7-9 weeks of age), with dosage of 1 mg/kg. About 30 μL of blood was collected from the jugular vein at 0.0833, 0.25, 0.5, 1.0, 2.0, 4.0, 8.0, 10 and 24 h and from the tail vein at 0.25, 0.5, 1.0, 2.0, 4.0, 8.0 and 24 h after administration for both groups of animals, and were placed in anticoagulation tubes with EDTA-K2, and the blood was separated by centrifugation to obtain plasma. Plasma concentrations were detected by LC-MS/MS, and relevant pharmacokinetic parameters were calculated using WinNonlin™ Version 6.3 (Pharsight, Mountain View, CA) pharmacokinetic software with a non-compartmental model linear logarithmic trapezoid method.

SMILES: CCn1c(CO)nn(-c2nc(O[C@@H](C)C(F)(F)F)c(/C=C/c3c(F)cccc3Cl)cc2F)c1=O [Compound 36]
EC50 [1]: 10 nM
IC50 (DHODH enzyme): 1.5 nM
IC50 [2]: 5.9 nM

IC50 (DHODH enzyme): 4.7 nM
SMILES: CCn1c(CO)nn(-c2cc(O[C@@H](C)C(F)(F)F)c(/C(F)=C/c3cccc(NC(=O)C4CC4)c3)cc2F)c1=O [Compound 29]

SMILES: CCn1c(CO)nn(-c2cc(O[C@@H](C)C(F)(F)F)c(/C(F)=C/c3c(F)cncc3Cl)cc2F)c1=O [Compound 2]
EC50 [1]: 20 nM
IC50 (DHODH enzyme): 3.9 nM

SMILES: CCn1c(CO)nn(-c2cc(O[C@@H](C)C(F)(F)F)c(/C(F)=C/c3cccnc3OC)cc2F)c1=O [Compound 6]
EC50 [1]: 67 nM
Papp A→B at 150 min, 2 μM (MDR1 (P-glycoprotein)): 3.72 ×10⁻⁶ cm/s
Papp B→A at 150 min, 2 μM (MDR1 (P-glycoprotein)): 3.55 ×10⁻⁶ cm/s
Papp at 150 min, 2 μM (MDR1 (P-glycoprotein)): 1 to 5.5 ×10⁻⁶ cm/s
efflux ratio at 150 min, 2 μM (MDR1 (P-glycoprotein)): 0.95
Tlast ([3]; IV 0.2 mg/kg): 24.0 h
F ([3]; PO 1 mg/kg): 85.4%
Tlast ([3]; PO 1 mg/kg): 24.0 h
AUC(0-inf) ([3]; IV 0.2 mg/kg): 2.13 µM·h
AUC(0-t) ([3]; IV 0.2 mg/kg): 1.96 µM·h
clearance ([3]; IV 0.2 mg/kg): 3.14 mL/min/kg
half-life ([3]; IV 0.2 mg/kg): 6.83 h
MRT last ([3]; IV 0.2 mg/kg): 5.93 h
Vd ([3]; IV 0.2 mg/kg): 1.53 L/kg
AUC(0-inf) ([3]; PO 1 mg/kg): 9.08 µM·h
AUC(0-t) ([3]; PO 1 mg/kg): 7.79 µM·h
Tmax ([3]; PO 1 mg/kg): 2 h
half-life ([3]; PO 1 mg/kg): 9.19 h
MRT last ([3]; PO 1 mg/kg): 7.76 h
C0 ([3]; IV 0.2 mg/kg): 640 nM
Cmax ([3]; PO 1 mg/kg): 935 nM
IC50 (DHODH enzyme): 12.4 nM

IC50 (DHODH enzyme): 3.9 nM
SMILES: CCn1c(CO)nn(-c2cc(O[C@@H](C)C(F)(F)F)c(/C(F)=C/c3cnccc3C(F)F)cc2F)c1=O [Compound 32]

IC50 (DHODH enzyme): 1.5 nM
SMILES: CCn1c(CO)nn(-c2cc(O[C@@H](C)C(F)(F)F)c(/C(F)=C/c3cnccc3C)cc2F)c1=O [Compound 27]

SMILES: CCn1c(CO)nn(-c2cc(O[C@@H](C)C(F)(F)F)c(/C(F)=C/c3cccnc3C(F)F)cc2F)c1=O [Compound 39]
EC50 [1]: 42 nM
Papp A→B at 150 min, 2 μM (MDR1 (P-glycoprotein)): 10.1 ×10⁻⁶ cm/s
Papp B→A at 150 min, 2 μM (MDR1 (P-glycoprotein)): 13.9 ×10⁻⁶ cm/s
Papp at 150 min, 2 μM (MDR1 (P-glycoprotein)): > 5.5 ×10⁻⁶ cm/s
efflux ratio at 150 min, 2 μM (MDR1 (P-glycoprotein)): 1.37
Tlast ([3]; IV 0.2 mg/kg): 24.0 h
F ([3]; PO 1 mg/kg): 97.4%
Tlast ([3]; PO 1 mg/kg): 24.0 h
AUC(0-inf) ([3]; IV 0.2 mg/kg): 2.24 µM·h
AUC(0-t) ([3]; IV 0.2 mg/kg): 1.84 µM·h
clearance ([3]; IV 0.2 mg/kg): 2.86 mL/min/kg
half-life ([3]; IV 0.2 mg/kg): 10.4 h
MRT last ([3]; IV 0.2 mg/kg): 7.83 h
Vd ([3]; IV 0.2 mg/kg): 2.31 L/kg
AUC(0-inf) ([3]; PO 1 mg/kg): 10.6 µM·h
AUC(0-t) ([3]; PO 1 mg/kg): 8.95 µM·h
Tmax ([3]; PO 1 mg/kg): 1.5 h
half-life ([3]; PO 1 mg/kg): 8.86 h
MRT last ([3]; PO 1 mg/kg): 8.67 h
C0 ([3]; IV 0.2 mg/kg): 419 nM
Cmax ([3]; PO 1 mg/kg): 787 nM
IC50 (DHODH enzyme): 1.3 nM
IC50 [2]: 14.4 nM

IC50 (DHODH enzyme): 9 nM
SMILES: CCn1c(CO)nn(-c2cc(O[C@@H](C)C(F)(F)F)c(/C=C/c3cccnc3OC)cc2F)c1=O [Compound 23]

IC50 (DHODH enzyme): 6 nM
SMILES: CCn1c(CO)nn(-c2nc(O[C@@H](C)C(F)(F)F)c(/C(F)=C/c3ncccc3Cl)cc2F)c1=O [Compound 25]
IC50 [2]: 2 nM

SMILES: CCn1c(CO)nn(-c2cc(O[C@@H](C)C(F)(F)F)c(/C=C/c3c(F)cccc3Cl)cc2F)c1=O [Compound 35]
EC50 [1]: 42 nM
IC50 (DHODH enzyme): 2.6 nM
